Data from paper PMC5337940, “Sansanmycin natural product analogues as potent and selective anti-mycobacterials that inhibit lipid I biosynthesis” (Nature Communications, 2017).
Converted amounts (≈) assume the structure as drawn. Like-named read-outs stand apart in the source and are kept apart here.

Legend:
[1] = biological target: Mtb MurX (Mycobacterium tuberculosis, UniProt P9WMW7); assay: Radiochemical (TLC) MurX-MurG coupled inhibition assay in Mtb mc2 6230 membranes; assay type: biochemical; details: 200 nM inhibitor, decrease in lipid II formation
[2] = system: Mtb H37Rv; assay: Resazurin reduction microplate assay, growth inhibition of Mtb H37Rv; assay type: cell-based, Mycobacterium tuberculosis
[3] = system: HEK293 cells; assay: Cytotoxicity counter-screen, resazurin reduction microplate assay; assay type: cell-based; details: Homo sapiens, tested up to 200 μM, read-out: MIC50 (HEK293)
[4] = Mycobacterium tuberculosis, H37RV, average of two independent experiments, each in triplicate, read-out: MIC50 Mtb H37Rv
[5] = average of two independent experiments, each in triplicate
[6] = average of two independent experiments, each in triplicate, read-out: MIC50 Mtb H37Rv
[7] = Mycobacterium tuberculosis, H37RV, read-out: MIC50 Mtb H37Rv

Mtb MurX, sequence (P9WMW7 whole entry): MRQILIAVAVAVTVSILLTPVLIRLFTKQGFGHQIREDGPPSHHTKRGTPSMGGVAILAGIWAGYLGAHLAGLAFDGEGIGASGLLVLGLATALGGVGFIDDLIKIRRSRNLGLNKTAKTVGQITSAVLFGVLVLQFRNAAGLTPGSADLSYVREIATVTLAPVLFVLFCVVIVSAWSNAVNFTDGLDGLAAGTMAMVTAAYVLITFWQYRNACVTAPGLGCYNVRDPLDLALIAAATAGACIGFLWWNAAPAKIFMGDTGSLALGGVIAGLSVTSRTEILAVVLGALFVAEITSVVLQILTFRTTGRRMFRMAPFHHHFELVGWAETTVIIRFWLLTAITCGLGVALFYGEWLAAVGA

| SMILES | inhibition at 0.2 µM [1] | MIC50 [2, 4] | CC50 [3] | MIC50 Mtb H37Rv [2, 5] | MIC50 [2, 6] | MIC50 [2, 7] | MIC50 ([2]; Mycobacterium tuberculosis, H37RV, Mtb H37Rv, read-out: MIC50 against Mtb) |
| --- | --- | --- | --- | --- | --- | --- | --- |
| CSCC[C@H](NC(=O)N[C@@H](Cc1c[nH]c2ccccc12)C(=O)O)C(=O)N[C@H](C(=O)NC[C@H]1C[C@@H](O)[C@H](n2ccc(=O)[nH]c2=O)O1)[C@H](C)N(C)C(=O)[C@@H](N)c1cccc(O)c1 [Compound 4, Dihydrosansanmycin A] | 68% | 0.5 ± 0.05 µM (≈ 0.426 µg/mL) | > 200 µM |  |  |  |  |
| CC(C)C[C@H](NC(=O)N[C@@H](Cc1c[nH]c2ccccc12)C(=O)O)C(=O)N[C@H](C(=O)NC[C@H]1C[C@@H](O)[C@H](n2ccc(=O)[nH]c2=O)O1)[C@H](C)N(C)C(=O)[C@@H](N)Cc1cccc(O)c1 [Compound 5, Dihydrosansanmycin B] | > 51% | 0.3 ± 0.03 µM (≈ 0.254 µg/mL) | > 200 µM | 0.30 ± 0.07 µM (≈ 0.254 µg/mL) |  |  |  |
| C[C@@H]([C@H](NC(=O)[C@H](CC[S+](C)[O-])NC(=O)N[C@@H](Cc1c[nH]c2ccccc12)C(=O)O)C(=O)NC[C@H]1C[C@@H](O)[C@H](n2ccc(=O)[nH]c2=O)O1)N(C)C(=O)[C@@H](N)Cc1cccc(O)c1 (stereo partly drawn) [Compound 6, Dihydrosansanmycin C] | 68% | 18.5 ± 0.7 µM (≈ 16.3 µg/mL) | > 200 µM |  |  |  |  |
| CC(C)C[C@H](NC(=O)N[C@@H](Cc1c[nH]c2ccccc12)C(=O)O)C(=O)N[C@H](C(=O)NC[C@H]1C[C@@H](O)[C@H](n2ccc(=O)[nH]c2=O)O1)[C@H](C)N(C)C(=O)[C@@H](N)Cc1ccccc1 [Compound 7] | 27% | 4.05 ± 0.63 µM (≈ 3.37 µg/mL) | > 200 µM |  |  |  |  |
| CC(C)C[C@H](NC(=O)N[C@@H](Cc1c[nH]c2ccccc12)C(=O)O)C(=O)N[C@H](C(=O)NC[C@H]1C[C@@H](O)[C@H](n2ccc(=O)[nH]c2=O)O1)[C@H](C)N(C)C(=O)[C@@H](N)Cc1cccnc1 [Compound 8] | 5% | 5.85 ± 2.33 µM (≈ 4.87 µg/mL) | > 200 µM |  |  |  |  |
| CC(C)C[C@H](NC(=O)N[C@@H](Cc1c[nH]c2ccccc12)C(=O)O)C(=O)N[C@H](C(=O)NC[C@H]1C[C@@H](O)[C@H](n2ccc(=O)[nH]c2=O)O1)[C@H](C)N(C)C(=O)[C@@H](N)Cc1ccc2ccccc2c1 [Compound 9] | 27% | 3 ± 0.7 µM (≈ 2.65 µg/mL) | > 200 µM |  |  |  |  |
| CC(C)C[C@H](NC(=O)N[C@@H](Cc1c[nH]c2ccccc12)C(=O)O)C(=O)N[C@H](C(=O)NC[C@H]1C[C@@H](O)[C@H](n2ccc(=O)[nH]c2=O)O1)[C@H](C)N(C)C(=O)[C@@H](N)CC1CCCCC1 [Compound 10] | 41% | 1 ± 0.3 µM (≈ 0.838 µg/mL) | > 200 µM | 0.95 to 1.35 µM |  |  |  |
| CC(C)C[C@H](NC(=O)N[C@@H](Cc1c[nH]c2ccccc12)C(=O)O)C(=O)N[C@H](C(=O)NC[C@H]1C[C@@H](O)[C@H](n2ccc(=O)[nH]c2=O)O1)[C@H](C)N(C)C(=O)[C@@H](N)C1CCCCC1 [Compound 11] | 14% | 1.1 ± 0.84 µM (≈ 0.906 µg/mL) | > 200 µM | 0.95 to 1.35 µM |  |  |  |
| CC(C)C[C@H](NC(=O)N[C@@H](Cc1c[nH]c2ccccc12)C(=O)O)C(=O)N[C@H](C(=O)NC[C@H]1C[C@@H](O)[C@H](n2ccc(=O)[nH]c2=O)O1)[C@H](C)N(C)C(=O)CN [Compound 12] | 9% | 0.63 ± 0.17 µM (≈ 0.467 µg/mL) | > 200 µM |  | 0.63 µM (≈ 0.467 µg/mL) |  |  |
| CC(C)C[C@H](NC(=O)N[C@@H](Cc1c[nH]c2ccccc12)C(=O)O)C(=O)N[C@H](C(=O)NC[C@H]1C[C@@H](O)[C@H](n2ccc(=O)[nH]c2=O)O1)[C@H](C)N(C)C(=O)[C@H](C)N [Compound 13] | 50% | 0.6 ± 0.14 µM (≈ 0.453 µg/mL) | > 200 µM |  | 0.60 µM (≈ 0.453 µg/mL) |  |  |
| CC(C)C[C@H](NC(=O)N[C@@H](Cc1c[nH]c2ccccc12)C(=O)O)C(=O)N[C@H](C(=O)NC[C@H]1C[C@@H](O)[C@H](n2ccc(=O)[nH]c2=O)O1)[C@H](C)N(C)C(=O)[C@@H](N)CC(=O)O [Compound 14] | 8% |  | > 200 µM |  |  | 9.8 ± 1.1 µM (≈ 7.84 µg/mL) |  |
| CC(C)C[C@H](NC(=O)N[C@@H](Cc1c[nH]c2ccccc12)C(=O)O)C(=O)N[C@H](C(=O)NC[C@H]1C[C@@H](O)[C@H](n2ccc(=O)[nH]c2=O)O1)[C@H](C)N(C)C(=O)[C@@H](N)CCCCN [Compound 15] | 7% | 1.35 ± 0.07 µM (≈ 1.1 µg/mL) | > 200 µM | 0.95 to 1.35 µM |  |  |  |
| CC(C)C[C@H](NC(=O)N[C@@H](Cc1c[nH]c2ccccc12)C(=O)O)C(=O)N[C@H](C(=O)NC[C@H]1C[C@@H](O)[C@H](n2ccc(=O)[nH]c2=O)O1)[C@H](C)N(C)C(=O)[C@@H](N)CCCN [Compound 16] | 5% | 0.95 ± 0.07 µM (≈ 0.759 µg/mL) | > 200 µM | 0.95 to 1.35 µM |  |  |  |
| CC(C)C[C@H](NC(=O)N[C@@H](Cc1c[nH]c2ccccc12)C(=O)O)C(=O)N[C@H](C(=O)NC[C@H]1C[C@@H](O)[C@H](n2ccc(=O)[nH]c2=O)O1)[C@H](C)N(C)C(=O)[C@@H](N)[C@@H](C)O [Compound 17] | 20% | 1.35 ± 0.07 µM (≈ 1.06 µg/mL) | > 200 µM | 0.95 to 1.35 µM |  |  |  |
| CC[C@@H](C)[C@H](NC(=O)N[C@@H](Cc1c[nH]c2ccccc12)C(=O)O)C(=O)N[C@H](C(=O)NC[C@H]1C[C@@H](O)[C@H](n2ccc(=O)[nH]c2=O)O1)[C@H](C)N(C)C(=O)CN [Compound 21] | 46% | 0.93 ± 0.11 µM (≈ 0.69 µg/mL) | > 200 µM |  |  |  |  |
| CC(C)[C@H](NC(=O)N[C@@H](Cc1c[nH]c2ccccc12)C(=O)O)C(=O)N[C@H](C(=O)NC[C@H]1C[C@@H](O)[C@H](n2ccc(=O)[nH]c2=O)O1)[C@H](C)N(C)C(=O)CN [Compound 22] | 26% | 0.88 ± 0.12 µM (≈ 0.64 µg/mL) | > 200 µM |  |  |  |  |
| CCCCC[C@H](NC(=O)N[C@@H](Cc1c[nH]c2ccccc12)C(=O)O)C(=O)N[C@H](C(=O)NC[C@H]1C[C@@H](O)[C@H](n2ccc(=O)[nH]c2=O)O1)[C@H](C)N(C)C(=O)CN [Compound 23] | 59% | 0.51 ± 0.12 µM (≈ 0.385 µg/mL) | > 200 µM |  |  |  |  |
| C[C@@H]([C@H](NC(=O)[C@@H](NC(=O)N[C@@H](Cc1c[nH]c2ccccc12)C(=O)O)C1CCCCC1)C(=O)NC[C@H]1C[C@@H](O)[C@H](n2ccc(=O)[nH]c2=O)O1)N(C)C(=O)CN [Compound 24] | 41% | 0.51 ± 0.1 µM (≈ 0.392 µg/mL) | > 200 µM |  |  |  |  |
| C[C@H](O)[C@H](NC(=O)N[C@@H](Cc1c[nH]c2ccccc12)C(=O)O)C(=O)N[C@H](C(=O)NC[C@H]1C[C@@H](O)[C@H](n2ccc(=O)[nH]c2=O)O1)[C@H](C)N(C)C(=O)CN [Compound 26] | 40% | 2.8 µM (≈ 2.04 µg/mL) | > 200 µM | 2.80 ± 0.70 µM (≈ 2.04 µg/mL) |  |  |  |
| C[C@@H]([C@H](NC(=O)[C@H](CC(=O)O)NC(=O)N[C@@H](Cc1c[nH]c2ccccc12)C(=O)O)C(=O)NC[C@H]1C[C@@H](O)[C@H](n2ccc(=O)[nH]c2=O)O1)N(C)C(=O)CN [Compound 27] | 34% |  | > 200 µM |  |  | > 6.25 µM |  |
| C[C@@H]([C@H](NC(=O)[C@H](CCCCN)NC(=O)N[C@@H](Cc1c[nH]c2ccccc12)C(=O)O)C(=O)NC[C@H]1C[C@@H](O)[C@H](n2ccc(=O)[nH]c2=O)O1)N(C)C(=O)CN [Compound 28] | 47% | 0.7 ± 0.1 µM (≈ 0.53 µg/mL) | > 200 µM |  |  |  | 0.7 µM (≈ 0.53 µg/mL) |
| C[C@@H]([C@H](NC(=O)[C@H](Cc1ccccc1)NC(=O)N[C@@H](Cc1c[nH]c2ccccc12)C(=O)O)C(=O)NC[C@H]1C[C@@H](O)[C@H](n2ccc(=O)[nH]c2=O)O1)N(C)C(=O)CN [Compound 29] | 60% | 0.26 ± 0.15 µM (≈ 0.202 µg/mL) | > 200 µM |  |  |  |  |
| C[C@@H]([C@H](NC(=O)[C@H](Cc1ccc(C(F)(F)F)cc1)NC(=O)N[C@@H](Cc1c[nH]c2ccccc12)C(=O)O)C(=O)NC[C@H]1C[C@@H](O)[C@H](n2ccc(=O)[nH]c2=O)O1)N(C)C(=O)CN [Compound 30] | 100% | 0.2 ± 0.06 µM (≈ 0.169 µg/mL) | > 200 µM |  |  |  |  |
| C[C@@H]([C@H](NC(=O)[C@H](Cc1ccc(O)cc1)NC(=O)N[C@@H](Cc1c[nH]c2ccccc12)C(=O)O)C(=O)NC[C@H]1C[C@@H](O)[C@H](n2ccc(=O)[nH]c2=O)O1)N(C)C(=O)CN [Compound 31] | 40% | 0.44 to 0.98 µM (≈ 0.348 to 0.776 µg/mL) | > 200 µM | 0.52 ± 0.02 µM (≈ 0.412 µg/mL) |  |  |  |
| C[C@@H]([C@H](NC(=O)[C@H](Cc1cccnc1)NC(=O)N[C@@H](Cc1c[nH]c2ccccc12)C(=O)O)C(=O)NC[C@H]1C[C@@H](O)[C@H](n2ccc(=O)[nH]c2=O)O1)N(C)C(=O)CN [Compound 32] | 52% |  | > 200 µM |  |  |  |  |
| C[C@@H]([C@H](NC(=O)[C@H](Cc1c[nH]c2ccccc12)NC(=O)N[C@@H](Cc1c[nH]c2ccccc12)C(=O)O)C(=O)NC[C@H]1C[C@@H](O)[C@H](n2ccc(=O)[nH]c2=O)O1)N(C)C(=O)CN [Compound 33] | 52% | 0.44 to 0.98 µM (≈ 0.359 to 0.799 µg/mL) | > 200 µM | 0.44 ± 0.06 µM (≈ 0.359 µg/mL) |  |  |  |
| C[C@@H]([C@H](NC(=O)[C@@H](NC(=O)N[C@@H](Cc1c[nH]c2ccccc12)C(=O)O)c1ccccc1)C(=O)NC[C@H]1C[C@@H](O)[C@H](n2ccc(=O)[nH]c2=O)O1)N(C)C(=O)CN [Compound 34] | 51% | > 6.25 µM | > 200 µM |  |  |  |  |
| C[C@@H]([C@H](NC(=O)[C@H](CCc1ccccc1)NC(=O)N[C@@H](Cc1c[nH]c2ccccc12)C(=O)O)C(=O)NC[C@H]1C[C@@H](O)[C@H](n2ccc(=O)[nH]c2=O)O1)N(C)C(=O)CN [Compound 35] |  | 1.08 ± 0.1 µM (≈ 0.853 µg/mL) | > 200 µM |  |  |  |  |
| NNC(=O)c1ccncc1 [INH, isoniazid, reference compound] |  | 0.025 ± 0.005 µM (≈ 0.00343 µg/mL) |  |  |  |  |  |
| CO[C@H]1/C=C/O[C@@]2(C)Oc3c(C)c(O)c4c(O)c(c(/C=N/N5CCN(C)CC5)c(O)c4c3C2=O)NC(=O)/C(C)=C\C=C\[C@H](C)[C@H](O)[C@@H](C)[C@@H](O)[C@@H](C)[C@H](OC(C)=O)[C@@H]1C [RIF, Rifampicin, reference compound] |  | 0.006 ± 0.002 µM (≈ 0.00494 µg/mL) |  |  |  |  |  |
